pIC50: −log10 of the molar value. ≈ marks a conversion by molar mass, not a printed value.
Tests used:
Format in all cases: functional
Staphylococcus aureus [1] = test: In vitro antibacterial activity against Staphylococcus aureus strain, ATCC 29213
Staphylococcus aureus [2] = test: In vitro antibacterial activity against methicillin resistant Staphylococcus aureus (MRSA) strain, OC2089
Bacillus subtilis = test: Ability to inhibit autophosphorylation of KinA and/or Sp0F TCS proteins from Bacillus subtilis
Escherichia coli = test: Ability to inhibit autophosphorylation of NR11 and/or transphosphorylation of NR1 TCS proteins from Escherichia coli
Enterococcus faecium = test: In vitro antibacterial activity against E. faecium(VR) strain, OC3312 Van R
Enterococcus faecalis = test: In vitro antibacterial activity against Enterococcus faecalis strain, OC3041

Row | Structure (SMILES) | MIC (Staphylococcus aureus [1]) | MIC (Staphylococcus aureus [2]) | pIC50 (Bacillus subtilis) | pIC50 (Escherichia coli) | MIC (Enterococcus faecium) | MIC (Enterococcus faecalis)
1 | CCCCCCCCCCCCCCCCCCCCOc1cccc(O)c1C(=O)O | > 128 µg/mL | > 128 µg/mL | < 3.30 | < 3.30 | > 128 µg/mL | –
2 | CCCCCCCCCCCCCCOc1ccccc1C(=O)O | – | – | < 3.30 | 4.05 | – | –
3 | CCCCCCCCCCCCCCOc1ccccc1C(=O)OC | – | – | < 3.30 | < 3.30 | – | –
4 | O=C(O)c1c(O)cccc1OCCCCCc1ccccc1 | 64 µg/mL (≈ 213 µM) | 64 µg/mL (≈ 213 µM) | 3.42 | < 3.30 | 128 µg/mL (≈ 426 µM) | 128 µg/mL (≈ 426 µM)
5 | CCCCCCCCCCCOc1cccc(O)c1C(=O)O | 8 µg/mL (≈ 25.9 µM) | 16 µg/mL (≈ 51.9 µM) | 4.60 | 4.36 | 16 µg/mL (≈ 51.9 µM) | 16 µg/mL (≈ 51.9 µM)
6 | O=C(O)c1c(O)cccc1OCCC(c1ccccc1)(c1ccccc1)c1ccccc1 | 4 µg/mL (≈ 9.42 µM) | 8 µg/mL (≈ 18.8 µM) | 4.07 | 4.20 | 16 µg/mL (≈ 37.7 µM) | 16 µg/mL (≈ 37.7 µM)
7 | CCCCCCCCOc1cccc(O)c1C(=O)O | 64 µg/mL (≈ 240 µM) | 64 µg/mL (≈ 240 µM) | 3.72 | < 3.30 | 128 µg/mL (≈ 481 µM) | 128 µg/mL (≈ 481 µM)
8 | CCCCCCCCCCCCOc1cccc(O)c1C(=O)OC | – | – | < 3.30 | < 3.30 | – | –
9 | O=C(O)c1c(O)cccc1OCCCc1ccccc1 | > 128 µg/mL | > 128 µg/mL | < 3.30 | < 3.30 | > 128 µg/mL | > 128 µg/mL
10 | CCCCCCCCCCCCCCCc1cccc(O)c1 | – | – | < 3.30 | – | – | –
11 | CCCCCCCCCCCCCCOc1cccc(O)c1C(=O)O | > 64 µg/mL | > 32 µg/mL | 5.66 | 5.30 | 4 µg/mL (≈ 11.4 µM) | 4 µg/mL (≈ 11.4 µM)
12 | CCCCCCCCCCCCCCCCOc1cccc(O)c1C(=O)O | > 128 µg/mL | 128 µg/mL (≈ 338 µM) | 5.52 | 5.82 | 8 µg/mL (≈ 21.1 µM) | 8 µg/mL (≈ 21.1 µM)
13 | CC/C=C\CCCCCCCCCCOc1cccc(O)c1C(=O)O | 32 µg/mL (≈ 91.8 µM) | 32 µg/mL (≈ 91.8 µM) | 5.10 | 5.11 | 16 µg/mL (≈ 45.9 µM) | 16 µg/mL (≈ 45.9 µM)
14 | CCCCCCCCCCCCOc1cccc(O)c1C(=O)O | 8 µg/mL (≈ 24.8 µM) | 8 µg/mL (≈ 24.8 µM) | 5.36 | 4.77 | 8 µg/mL (≈ 24.8 µM) | 8 µg/mL (≈ 24.8 µM)
15 | CCCCCCCCCCCCCCOc1cccc(O)c1C(=O)OC | – | – | < 3.30 | < 3.30 | – | –
16 | CCCCCCCCCCCCCCCCCCOc1cccc(O)c1C(=O)O | 128 µg/mL (≈ 315 µM) | 128 µg/mL (≈ 315 µM) | 4.20 | 3.89 | 128 µg/mL (≈ 315 µM) | –
17 | CCCCCCCCCCCCCCCc1cc(O)cc(O)c1 [CARDOL] | – | – | 3.63 | – | – | –

From ChEMBL document CHEMBL1132034, “6-oxa isosteres of anacardic acids as potent inhibitors of bacterial histidine protein kinase (HPK)-mediated two-component regulatory systems” (Bioorg Med Chem Lett, 1999)
